Source: US8394829B2, “Bi-functional quinoline analogs” (Gilead Sciences, Inc., priority 2010, dated 2013)

What was measured:
[1] = test system: LPS-induced TNF-α release from human peripheral blood mononuclear cells (PBMC); assay: Inhibition of LPS-induced TNF-α release from human PBMC; type: cell-based; conditions: LPS 0.4 ng/mL, 6 h, presence or absence of ICI-118551 not given
From the text: Inhibition of Lipopolysaccharide (LPS)-Induced Tumour Necrosis Factor Alpha (TNF-α) Release from Human Peripheral Blood Mononuclear Cells (PBMC)
Human whole blood was drawn from donors and cell purification initiated within two hours. Peripheral blood mononuclear cells (PBMC) were purified using a standard Ficoll gradient purification technique and aliquoted at a concentration of 100,000 cells/well in 96 well plates. Beta-2 adrenoreceptor agonists are also anti-inflammatory for some immune cells expressing the receptor and in this assay they can inhibit tumor necrosis factor-alpha (TNF-α) production. Therefore PBMC were pre-incubated for 30 min in the presence of the beta-2 adrenoreceptor antagonist ICI-118551 [3-(isopropylamino)-1-[(7-methyl-4-indanyl)oxy]butan-2-ol] (10 μM) to determine the PDE4 directed activity of test compounds, and in the absence of ICI-118551 for the combined PDE4 and beta-2 receptor directed activity. Test compounds were dissolved in DMSO and diluted in buffer (final DMSO concentration of 0.1% v/v) and were then added to the cell suspensions and pre-incubated for a further 1 h at 37° C. LPS solution was then added (0.4 ng/mL) and the cells incubated for a further 6 h. At the end of the incubation period the cell supernatants were collected and TNF-α was measured using a Procarta Cytokine Assay Kit (Affymetrix, Santa Clara, Calif.) according to the manufacturers' instructions. Data were analyzed using MiraiBio Masterplex QT v4.0 software (MasterPlex Version 1.0.1.18 Copyright 2008, Hitachi Software Engineering Co., Ltd) and used to extrapolate Mean Fluorescence Intensity (MFI) into concentrations of TNF-α and mean values from replicate wells were determined. Inhibition curves were plotted using a nonlinear curve fit employing a single-site binding model to determine the IC50 value for each test compound in the presence or absence of ICI-118551 using GraphPad Prism 5 for Windows, version 5.02 (GraphPad Software, San Diego Calif.).
EC50 determinations for the compounds presented above are seen in the fourth column of Table 1 (PBMC TNF EC50).

[2] = target: T1, Human recombinant PDE4B2 (Homo sapiens, UniProt Q07343); assay: Inhibition of PDE4B4 enzyme activity (PDE Glo Assay); type: biochemical; conditions: human recombinant PDE4B2, 50 nM cAMP; read-out: PDE4 IC50
T1 construct: purchased BPS Bioscience
T1 sequence (Q07343 1-564 isoform Q07343-2): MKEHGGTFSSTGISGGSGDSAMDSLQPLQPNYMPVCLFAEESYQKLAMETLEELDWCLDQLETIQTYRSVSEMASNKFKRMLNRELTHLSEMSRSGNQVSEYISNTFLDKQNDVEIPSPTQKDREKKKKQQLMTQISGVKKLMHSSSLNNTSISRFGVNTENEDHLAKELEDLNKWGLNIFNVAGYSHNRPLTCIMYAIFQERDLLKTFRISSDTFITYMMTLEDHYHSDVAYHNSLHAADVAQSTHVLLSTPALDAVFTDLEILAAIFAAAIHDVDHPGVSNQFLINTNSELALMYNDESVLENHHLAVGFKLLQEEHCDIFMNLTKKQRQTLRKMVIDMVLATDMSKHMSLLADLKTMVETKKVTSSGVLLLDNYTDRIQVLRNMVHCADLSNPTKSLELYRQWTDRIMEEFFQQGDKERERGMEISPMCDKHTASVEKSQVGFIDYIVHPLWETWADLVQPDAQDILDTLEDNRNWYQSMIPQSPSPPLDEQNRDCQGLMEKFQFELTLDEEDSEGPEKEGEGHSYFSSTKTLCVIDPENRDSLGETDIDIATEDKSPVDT
Experimental: Biological Examples Inhibition of PDE4B4 Enzyme Activity
The inhibitory activity of test compounds were determined using the PDE Glo Assay (Promega, V1361). The PDE-Glo Reaction Buffer was prepared (1 mL 5× buffer+4 mL water) and 150 nM solution of test compound dissolved in the Reaction Buffer, followed by 1:3 serial dilutions into Reaction Buffer. […] Human recombinant PDE4B2 (BPS Bioscience) was added to test compound in Reaction Buffer at a concentration of 0.12 nM per reaction. The enzyme and test compound were pre-incubated together at rt for 10 min. 50 nM of the enzyme substrate cAMP was then added to initiate the enzyme reaction, with the reaction terminated after one hour. Termination Buffer (1 mL 5× termination buffer+3.9 mL water+100 μL of 100 mM IBMX (ICN Chemicals, in DMSO)), was added to each reaction well to terminate the reaction. Detection Buffer (1 mL 5×PDE-Glo Detection buffer+3.96 mL water+40 μL PKA (supplied in kit)) was added to the cAMP-enzyme-test compound mix and this secondary reaction proceeded for 20 minutes at rt. An equal volume of Kinase Glo Reagent was then added to the reaction mixture and after 10 min luminescence was measured using a luminometer (EnVision, 0.1 sec read for luminescence). Luminescence values were […] related to levels of cAMP in the reaction mixture. Data were plotted as relative light units (RLU) versus test compound concentration and the IC50 determined using GraphPad Prism 5.0, using a nonlinear curve fit in a single-site binding model.
IC50 determinations for the compounds presented above are seen in the first column of Table 1 (PDE4IC50).

[3] = target: T2, human recombinant beta-2 adrenoreceptors (Homo sapiens, UniProt P07550); assay: Functional agonism of human recombinant beta-2 adrenoreceptors expressed in CHO cells (cAMP HTRF); type: cell-based; conditions: CHO cells expressing human beta-2 adrenoreceptors, cAMP elevation, 30 min
T2 construct: expressed in transfected cells; host or cells: CHO cells
T2 sequence (P07550 whole entry): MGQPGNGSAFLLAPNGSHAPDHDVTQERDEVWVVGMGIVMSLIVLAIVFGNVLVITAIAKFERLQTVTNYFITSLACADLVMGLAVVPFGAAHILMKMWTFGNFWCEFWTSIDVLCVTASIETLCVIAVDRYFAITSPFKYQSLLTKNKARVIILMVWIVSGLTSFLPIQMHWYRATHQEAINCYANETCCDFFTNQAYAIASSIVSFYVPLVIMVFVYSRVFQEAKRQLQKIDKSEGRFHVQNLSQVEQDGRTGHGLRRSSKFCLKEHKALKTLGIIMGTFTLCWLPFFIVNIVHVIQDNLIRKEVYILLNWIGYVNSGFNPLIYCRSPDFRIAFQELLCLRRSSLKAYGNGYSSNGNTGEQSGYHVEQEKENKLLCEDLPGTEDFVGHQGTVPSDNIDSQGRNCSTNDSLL
Experimental: Functional Agonism of Human Recombinant Beta-2 Adrenoreceptors Expressed in Chinese Hamster Oocytes (CHO)
Test compounds were incubated for 30 min with CHO cells expressing the human recombinant beta-2 adrenoreceptors. Agonism of the receptor was measured by the elevation of intracellular cyclic-AMP over control levels detected using a homogeneous time resolved fluorescence (HTRF) format. Compounds were determined to be “full” or “partial” agonists based on the maximum level of cAMP accumulated compared to the control compound isoproterenol which is a full agonist in this assay system. Concentration response curves were generated for test compounds and the EC50 (molar concentration of the agonist which produced 50% of the maximal response for that compound) was determined. These assays were performed using a protocol based on the original description of the assay by Baker, J. G. (2005) Brit. J. Pharmacol.; 144:317-322.
EC50 determinations for the compounds presented above are seen in the third column of Table 1 (Beta 2 EC50).

[4] = target: T2, human recombinant beta-2 adrenoreceptors; assay: Beta-2 adrenoceptor binding assay ([3H](−)CGP-12177 displacement); conditions: CHO cells expressing human beta-2 adrenoreceptors, [3H](−)CGP-12177 0.3 nM, 120 min
Experimental: Beta-2 Adrenoceptor Binding Assay
Test compounds were incubated for 120 min with Chinese hamster oocyte (CHO) cells expressing the human recombinant beta-2 adrenoreceptors. Binding of test compounds to the beta-2 adrenoreceptors was determined by measuring the displacement of the radiolabeled ligand [^3H](−)CGP-12177 (0.3 nM) from the receptor measured by a scintillation counting. Concentration response curves were generated for test compounds and the IC50 (molar concentration of the compound which produced 50% inhibition for the maximal response for that compound) was determined. These assays were performed using a protocol based on the original description of the assay by Joseph et al., (2004) Naun.-Sch. Arch. Pharm.; 369:525-532.
IC50 determinations for the compounds presented above are seen in the second column of Table 1 (Beta 2 IC50).

Row | Structure (SMILES) | EC50 [1] [nM] | IC50 [2] [nM] | EC50 [3] [nM] | IC50 [4] [nM]
1 | COc1cccc(Nc2c(C(N)=O)cnc3c(C)cc(S(=O)(=O)c4cccc(C(=O)N5CCN(CCCCCCNC[C@H](O)c6ccc(O)c7[nH]c(=O)ccc67)CC5)c4)cc23)c1 [Example 16, (R)-6-((3-(4-(6-((2-hydroxy-2-(8-hydroxy-2-oxo-1,2-dihydroquinolin-5-yl)ethyl)amino)hexyl)piperazine-1-carbonyl)phenyl)sulfonyl)-4-((3-methoxyphenyl)amino)-8-methylquinoline-3-carboxamide] | < 100 | < 100 | < 300 | > 300
2 | COc1cccc(Nc2c(C(N)=O)cnc3c(C)cc(S(=O)(=O)c4cccc(C(=O)N5CCN(C(=O)c6cccc(CC(C)NC[C@H](O)c7ccc(O)c8[nH]c(=O)ccc78)c6)CC5)c4)cc23)c1 (stereo partly drawn) [Example 17, 6-((3-(4-(3-(2-(((R)-2-hydroxy-2-(8-hydroxy-2-oxo-1,2-dihydroquinolin-5-yl)ethyl)amino)propyl)benzoyl)piperazine-1-carbonyl)phenyl)sulfonyl)-4-((3-methoxyphenyl)amino)-8-methylquinoline-3-carboxamide] | < 100 | < 100 | < 100 | < 100
3 | COc1cccc(Nc2c(C(N)=O)cnc3c(C)cc(S(=O)(=O)c4cccc(C(=O)N5CCN(C(=O)c6cccc(CC(C)(C)NC[C@H](O)c7ccc(O)c8[nH]c(=O)ccc78)c6)CC5)c4)cc23)c1 [Example 18, (R)-6-((3-(4-(3-(2-((2-hydroxy-2-(8-hydroxy-2-oxo-1,2-dihydroquinolin-5-yl)ethyl)amino)-2-methylpropyl)benzoyl)piperazine-1-carbonyl)phenyl)sulfonyl)-4-((3-methoxyphenyl)amino)-8-methylquinoline-3-carboxamide] | < 100 | < 100 | < 100 | < 100
4 | COc1cccc(Nc2c(C(N)=O)cnc3c(C)cc(S(=O)(=O)c4cccc(CN(C)C(=O)c5cccc(CC(C)(C)NC[C@H](O)c6ccc(O)c7[nH]c(=O)ccc67)c5)c4)cc23)c1 [Example 19, (R)-6-((3-((3-(2-((2-hydroxy-2-(8-hydroxy-2-oxo-1,2-dihydroquinolin-5-yl)ethyl)amino)-2-methylpropyl)-N-methylbenzamido)methyl)phenyl)sulfonyl)-4-((3-methoxyphenyl)amino)-8-methylquinoline-3-carboxamide] | < 100 | < 100 | < 100 | < 100
5 | COc1cccc(Nc2c(C(N)=O)cnc3c(C)cc(S(=O)(=O)c4cccc(C(=O)Nc5ccc(-c6ccc(CNC[C@H](O)c7ccc(O)c8[nH]c(=O)ccc78)cc6)cc5)c4)cc23)c1 [Example 20, (R)-6-((3-((4′-(((2-hydroxy-2-(8-hydroxy-2-oxo-1,2-dihydroquinolin-5-yl)ethyl)amino)methyl)-[1,1′-biphenyl]-4-yl)carbamoyl)phenyl)sulfonyl)-4-((3-methoxyphenyl)amino)-8-methylquinoline-3-carboxamide] | < 100 | < 100 | < 100 | < 100
6 | COc1cccc(Nc2c(C(N)=O)cnc3c(C)cc(S(=O)(=O)c4cccc(C(=O)NCCCCCCNC[C@H](O)c5cc(O)cc6c5OCC(=O)N6)c4)cc23)c1 [Example 23, (R)-6-((3-((6-((2-hydroxy-2-(6-hydroxy-3-oxo-3,4-dihydro-2H-benzo[b][1,4]oxazin-8-yl)ethyl)amino)hexyl)carbamoyl)phenyl)sulfonyl)-4-((3-methoxyphenyl)amino)-8-methylquinoline-3-carboxamide] | < 100 | < 100 | < 100 | < 100
7 | COc1cccc(Nc2c(C(N)=O)cnc3c(C)cc(S(=O)(=O)c4cccc(C(=O)N(C)CCOc5ccc(CCNC[C@H](O)c6ccc(O)c7[nH]c(=O)ccc67)cc5)c4)cc23)c1 [Example 25, (R)-6-((3-((2-(4-(2-((2-hydroxy-2-(8-hydroxy-2-oxo-1,2-dihydroquinolin-5-yl)ethyl)amino)ethyl)phenoxy)ethyl)(methyl)carbamoyl)phenyl)sulfonyl)-4-((3-methoxyphenyl)amino)-8-methylquinoline-3-carboxamide] | < 100 | < 100 | < 100 | > 300
8 | COc1cccc(Nc2c(C(N)=O)cnc3c(C)cc(S(=O)(=O)c4cccc(C(=O)NCCCCCCNC[C@H](O)c5ccc(O)c(NC=O)c5)c4)cc23)c1 [Example 27, (R)-6-[[3-[[6-[[2-(3-Formamido-4-hydroxyphenyl)-2-hydroxyethyl]amino]hexyl]carbamoyl]phenyl]sulfonyl]-4-((3-methoxyphenyl)amino]-8-methylquinoline-3-carboxamide] | < 100 | < 100 | < 100 | < 100
9 | COc1cccc(Nc2c(C(N)=O)cnc3c(C)cc(S(=O)(=O)c4cccc(C(=O)N(C)CCCCCCNC[C@H](O)c5ccc(O)c(NC=O)c5)c4)cc23)c1 [Example 28, (R)-6-((3-((6-((2-(3-formamido-4-hydroxyphenyl)-2-hydroxyethyl)amino)hexyl)(methyl)carbamoyl)phenyl)sulfonyl)-4-((3-methoxyphenyl)amino)-8-methylquinoline-3-carboxamide] | < 100 | < 100 | < 100 | > 300
10 | COc1cccc(Nc2c(C(N)=O)cnc3c(C)cc(S(=O)(=O)c4cccc(C(=O)NCCCCCCNC[C@H](O)c5ccc(O)c6c5OCC(=O)N6)c4)cc23)c1 [Example 29, (R)-6-((3-((6-((2-hydroxy-2-(5-hydroxy-3-oxo-3,4-dihydro-2H-benzo[b][1,4]oxazin-8-yl)ethyl)amino)hexyl)carbamoyl)phenyl)sulfonyl)-4-((3-methoxyphenyl)amino)-8-methylquinoline-3-carboxamide] | < 100 | < 100 | < 100 | < 100
